Where two headings read alike, the source gives them in different places.
What was measured:
prothrombin (factor II) = prothrombin (factor II) (Homo sapiens, UniProt P00734); assay: Prothrombin activation by Echis Carinatus venom (ECV); format: biochemical
Protocol: Prothrombin activation by Echis Carinatus venom (ECV). A reaction mixture of prothrombin (factor II) (0.1 unit/ml, 200 μl), ECV (1 unit/ml, 200 μl), various concentration of peptide (70 μl), 50 μl of 25 mM-CaCl2 and 180 μl of Tris buffer was incubated at 37° C. for 10 min. To 300 μl of the reaction mixture, 60 μl of 4 mM-thrombin substrate and 240 μl of buffer was added and further incubated for 15 min.

[1] = system: Salmonella minnesota ReLPS sensitized sheep erythrocytes; assay: LPS hemagglutination assay (MAC); format: binding
Protocol: (§1) For hemagglutination assays, erythrocytes were sensitized with LPS as follows. One ml of 1% erythrocyte suspension (human 0 type, C3H/HeN mouse or sheep) was mixed with 0.2 ml of LPS solution and incubated at 37° C. for 30 min, followed by washing with phosphate buffered saline (PBS), and then the concentration of suspension was adjusted to 1.0%. In the case of S-LPS, the solution was heated at 100° C. for 1 hour before sensitization of erythrocytes. […] Activity of CAP was expressed as a minimum agglutinating concentration (MAC) of CAP. According to the method of Kirikae et al. (1986) Microbiol. Immunol. 30:269-274, 50 μl of 2-fold serial dilution of Re-LPS was added to 50 μl of 1.0% rabbit erythrocyte suspension, and incubated at 37° C. for 3 hour. Minimum agglutinating concentration of Re-LPS was expressed as 1 HA unit.

factor Xa = target: T1, factor Xa (Homo sapiens, UniProt P00742); assay: Direct Xa inhibition using Xa substrate S2222; format: biochemical; conditions: concentrations over 10 μg/ml
T1 construct: purchased Sigma Chemical Co., St. Louis, Mo
T1 sequence (P00742 235-488 limits assumed): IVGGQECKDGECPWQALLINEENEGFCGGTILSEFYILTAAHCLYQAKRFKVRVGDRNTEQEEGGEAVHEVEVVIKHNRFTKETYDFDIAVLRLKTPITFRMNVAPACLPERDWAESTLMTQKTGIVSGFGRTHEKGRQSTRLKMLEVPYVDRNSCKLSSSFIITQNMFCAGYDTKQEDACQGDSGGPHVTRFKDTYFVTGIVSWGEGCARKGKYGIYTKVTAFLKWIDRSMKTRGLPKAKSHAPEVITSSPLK
T1 sequence (P00742 41-179 limits assumed): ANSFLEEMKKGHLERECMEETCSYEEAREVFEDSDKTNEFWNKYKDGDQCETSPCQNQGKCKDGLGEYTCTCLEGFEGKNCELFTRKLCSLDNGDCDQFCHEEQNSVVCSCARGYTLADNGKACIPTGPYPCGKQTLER
Source text: Clotting method: Human plasma (Ortho plasma control, Ortho Diagnostic Co.). ATPP reagent(Organo-technika, Tokyo, Japan). Standard tissue factor, rabbit brain thromboplastin (Simplastin, ONO Pharmaceutical, Tokyo, Japan). Purified human factor VII, factor X, factor Xa (Sigma Chemical Co., St. Louis, Mo.). Russell Viper venom (RVV) and Echis Carinatus venom (ECV, Sigma Co.).
Synthetic chromogenic substrate method: Substrate for factor Xa, S2222 (Kabi, Bz-Ile-Glu-Arg-pNA) was used. Substrate for factor II (prothrombin), Boc-Val-Pro-Arg-pNA (Sigma Chemical Co.) was used.

RAW 264.7 cells = assay: LPS- or IFNγ-induced reactive nitrogen intermediate (RNI) production, Griess nitrite assay; format: cell-based, murine
Protocol: From the sequence of the CAP18 cDNA, it was apparent that the putative N-terminal peptide of CAP18 was in fact an internal fragment of the CAP18 protein. We therefore tried to reconfirm the original protein sequence. Neutrophil-derived heparin bound cationic proteins were prepared as described above and applied to a C18 reverse phase HPLC (FIG. 1). We sequenced the major peaks. Peaks at fractions 14.5 and 15.2 correspond to defensins MCP1 and MCP2 (Territo et al. (1989) J. Clin. Invest. 84:2017-2019), respectively. Fraction 25.8 is macrophage related protein 14 (MRP14) (Odink et al. (1987) Nature 330:80-82). The fraction at 20.3 minutes corresponds to a fragment of CAP18 of approximately 4-5 kD. […] The murine macrophage cell line RAW 264.7 (obtained from ATCC) and thioglycollate-elicited murine peritoneal exudate cells are used to produce RNI. Cells are cultured at 1×10^6 /ml. in RPMI-1640 +2.5% FCS in 24 well plates in the presence or absence of different concentrations of LPS or murine rlFNγ. After 24 hr. incubation at 37° C., the cell free supernatant is collected and tested for the presence of RNI. Accumulation of nitrite in the medium is measured by a calorimetric assay based on the Griess reaction (Green et al. (1982) Anal. Biochem. 126:11) using sodium nitrite as standards. Sample (50 μl) is mixed with 50 μl of Griess reagent (1% sulfanilamide, 0.1% naphthalene diamine dihydrochloride, 2.5% H3 PO4) and after 10 min. at room temperature absorbance is read at 570 nm.

factor X = target: T2, factor X (Homo sapiens, UniProt P00742); assay: Factor X activation by tissue factor and factor VII, synthetic substrate S-2222; format: biochemical
T2 construct: purchased Sigma Chemical Co., St. Louis, Mo
T2 sequence (P00742 183-488): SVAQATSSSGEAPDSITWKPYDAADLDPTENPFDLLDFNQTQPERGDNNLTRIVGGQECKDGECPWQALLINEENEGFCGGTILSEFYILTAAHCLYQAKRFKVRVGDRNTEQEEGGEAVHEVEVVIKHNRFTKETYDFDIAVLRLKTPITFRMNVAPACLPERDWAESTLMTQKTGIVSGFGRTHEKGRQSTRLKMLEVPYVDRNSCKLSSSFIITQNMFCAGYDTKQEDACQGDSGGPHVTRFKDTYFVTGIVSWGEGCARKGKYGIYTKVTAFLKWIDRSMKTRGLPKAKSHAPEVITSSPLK
T2 sequence (P00742 41-179): as the sequence (P00742 41-179 limits assumed) above
Protocol: Factor Xa activity using synthetic substrate. A reaction mixture of factor VII (1 unit/ml, 200 μl), factor X (1 unit/ml, 200 μl), tissue factor (2.5 mg/ml, 50 μl), 25 mM-CaCl2 (50 μl) and 50 μl of several concentration of peptide was incubated at 37° C. for 10 min. To 200 Al of the reaction mixture, 60 μl of 4 mM S-2222, a synthetic substrate for factor Xa, and 340 μl of Tris-HCl buffer, pH 8.2, was added and further incubated for 15 min. The reaction was stopped by adding 60 μl of 50% acetic acid, and OD for p-nitroaniline was read at 405 nm.

Human plasma [2] = assay: Partial thromboplastin time (PTT); format: biochemical; conditions: dose dependent
Protocol: Partial thromboplastin time (PTT). Human plasma (100 μl) was incubated with each peptide (100 μl) at 37° C. for 3 min., then 100 μl of CaCl2 containing phospholipid was added and clotting time was measured.

Human plasma [3] = assay: Prothrombin time (PT); format: biochemical
Protocol: Prothrombin time (PT). Human plasma (100 μl) was incubated with 100 μl of each peptide at 37° C. for 3 min., then 100 μl of tissue factor (250 μg/ml) CaCl2 was added and clotting time was measured.

[4] = system: Klebsiella pneumoniae LPS; assay: Inhibition of RNIP-mediated hemagglutination by LPS preparation; format: binding; conditions: Peptide #36-1 16 μg/ml, RNIP (#197) 25 μg/ml preincubated with LPS 37° 30 minutes
Protocol: as §1
(§2) Another series of experiments was performed to determine if the #36-1 and #197 (RNIP) peptides were capable of binding to LPS from various species of Gram-negative bacteria. For these experiments, sheep red blood cells were sensitized with Salmonella minnesota Re-LPS. Peptides #36-1 and #197 (RNIP) were preincubated with various preparations of LPS. Both peptides bind to a diverse group of lipopolysaccharides.
(§3) +Peptide #361 (16 μg/ml) and RNIP (#197) (25 μg/ml) were
(§4) preincubated with each LPS preparation at 37° for 30 minutes, and
(§5) each reaction mixture was added to sheep erythrocytes sensitized with […]

E. coli 055:B5 LPS = assay: as above; format: binding; conditions: Peptide #36-1 16 μg/ml, RNIP (#197) 25 μg/ml preincubated with LPS 37° 30 minutes
Protocol: as §1, §2, §3, §4, §5

E. coli J5 LPS = assay: as above; format: binding; conditions: Peptide #36-1 16 μg/ml, RNIP (#197) 25 μg/ml preincubated with LPS 37° 30 minutes
Protocol: as §1, §2, §3, §4, §5

[5] = system: Salmonella minnesota R595 LPS; assay: as above; format: binding; conditions: Peptide #36-1 16 μg/ml, RNIP (#197) 25 μg/ml preincubated with LPS 37° 30 minutes
Protocol: as §1, §2, §3, §4, §5

[6] = system: Pseudomonas aeruginosa F-D Type I LPS; assay: as above; format: binding; conditions: Peptide #36-1 16 μg/ml, RNIP (#197) 25 μg/ml preincubated with LPS 37° 30 minutes
Protocol: as §1, §2, §3, §4, §5

E. coli 0111:B4 LPS = assay: as above; format: binding; conditions: Peptide #36-1 16 μg/ml, RNIP (#197) 25 μg/ml preincubated with LPS 37° 30 minutes
Protocol: as §1, §2, §3, §4, §5

E. coli 0127:B8 LPS = assay: as above; format: binding; conditions: Peptide #36-1 16 μg/ml, RNIP (#197) 25 μg/ml preincubated with LPS 37° 30 minutes
Protocol: as §1, §2, §3, §4, §5

[7] = system: thioglycollate-stimulated murine peritoneal macrophages; assay: LPS-induced tissue factor generation by macrophages (clotting assay); format: cell-based; conditions: peptides 1 μg/ml incubated with S. minnesota smooth LPS 5 minutes; 6 hr
Protocol: Tissue factor assay. Salmonella minnesota smooth LPS was incubated with each peptide (1 μg/ml) for 5 min., then the mixture was added to peritoneal murine macrophages obtained 4 days after thioglycollate stimulation. Cells were cultured for 6 hours prior to assay of tissue factor by clotting assay.
Various concentrations of Salmonella minnesota smooth LPS were incubated with each peptide (197 (RNIP), 36-1, 32-1, and 50-2) at 37° C. for 5 minutes prior to mixing with thioglycollate-stimulated murine peritoneal macrophages. Production of tissue factor after 6 hr. was measured by clotting assay. […] In the absence of LPS no tissue factor is synthesized by these cells.

coagulation = assay: Anti-coagulant activity of human RNIP (preliminary studies); format: biochemical
[8] = system: wild-type smooth Proteus mirabilis; conditions: wild-type smooth organism (Proteus mirabilis); cited from earlier work
[9] = system: rough mutant strain of Proteus mirabilis; conditions: cited from earlier work
Staphylococcus aureus = conditions: Gram-positive Staphylococcus aureus; cited from earlier work
encapsulated E. coli = conditions: cited from earlier work

With “36-1: synthetic rabbit RNIP fragment, amino acids 135-166 of SEQ ID NO:4 (GLRKRLRKFRNKIKEKLKKIGQKIQGLLPKLA) [Peptide 36-1]” the “inhibition of Echis carinatus venom activation of purified factor II to IIa (in words)” value (prothrombin (factor II)) was “inhibited”, the “Hemagglutination [MAC], minimum agglutinating concentration” value [1] was 3.9 µg/mL and the “direct Xa inhibition (in words)” value (factor Xa) was “No evidence of direct Xa inhibition”. For the same molecule, the “concentrations at which peptides are active in the bioassay” value (RAW 264.7 cells; day-to-day variation in the bioassay) was 10 to 50 nM, the “inhibition of LPS-induced RNI production (in words)” value (RAW 264.7 cells; macrophages / RAW 264.7 cells) was “active” and the “IC50, Tissue factor VII, X to Xa” value (factor X; synthetic substrate) was 0.3 to 0.7 µg/mL. The IC50 (factor X; text value for both peptides, read-out: IC50, factor X activated by tissue factor and purified factor VII) was 40 to 100 nM, the “inhibition of the partial thromboplastin time (PTT), in words” value (Human plasma [2]) was “inhibited” and the “inhibition of the prothrombin time (PT), in words” value (Human plasma [3]) was “inhibited”. The “MIC, minimal inhibitory concentration of LPS” value [4] was 31.3 µg/mL, the “MIC, minimal inhibitory concentration of LPS” value (E. coli 055:B5 LPS) was 15.6 µg/mL and the “MIC, minimal inhibitory concentration of LPS” value (E. coli J5 LPS) was 7.8 µg/mL. The “MIC, minimal inhibitory concentration of LPS” value [5] was 15.6 µg/mL, the “MIC, minimal inhibitory concentration of LPS” value [6] was 3.9 µg/mL and the “MIC, minimal inhibitory concentration of LPS” value (E. coli 0111:B4 LPS) was 15.6 µg/mL. For the same molecule, the “MIC, minimal inhibitory concentration of LPS” value (E. coli 0127:B8 LPS) was 15.6 µg/mL and the “inhibition of LPS induced tissue factor (in words)” value [7] was “inhibition”.

With “human RNIP: synthetic polypeptide comprising amino acids 134 to 170 of SEQ ID NO:2 (LLGDFFRKSKEKIGKEFKRIVQRIKDFLRNLVPRTES)” the “anti-coagulant activity (in words)” value (coagulation) was “lacks significant anti-coagulant activity” and the “anti-coagulant activity (in words)” value (coagulation; listed as Human RNIP) was “free from anti-coagulant activity”.

B1: BPI55: BPI holoprotein (protein, UniProt P17213 32-487, looked up)
Bactericidal …: VNPGVVVRISQKGLDYASQQGTAALQKELKRIKIPDYSDSFKIKHLGKGHYSFYSMDIREFQLPSSQISMVPNVGLKFSISNANIKISGKWKAQKRFLKMSGNFDLSIEGMSISADLKLGSNPTSGKPTITCSSCSSHINSVHVHISKSKVGWLIQLFHKKIESALRNKMNSQVCEKVTNSVSSELQPYFQTLPVMTKIDSVAGINYGLVAPPATTAETLDVQMKGEFYSENHHNPPPFAPPVMEFPAAHDRMVYLGLSDYFFNTAGLVYQEAGVLKMTLRDDMIPKESKFRLTTKFFGTFLPEVAKKFPNMKIQIHVSASTPPHLSVQPTGLTFYPAVDVQAFAVLPNSSLASLFLIGMHTTGSMEVSAESNRLVGELKLDRLLLELKHSNIGPFPVELLQDIMNYIVPILVLPRVNEKLQKGFPLPTPARVQLYNVVLQPHQNFLLFGADVVYK
In the case of B1, the growth inhibition [8] is listed as “only the rBPI23 inhibited growth”, the growth inhibition [9] is listed as “inhibited the growth” and the growth inhibition (Staphylococcus aureus) is listed as “Neither rBPI23 nor holoprotein BPI55 demonstrated inhibition”. For the same molecule, the “growth inhibitory activity, reduction over control” value (encapsulated E. coli) was “about 100 fold”.

From patent publication US6103888A, “Mammalian cationic proteins having lipopolysaccharide binding and anti-coagulant activity” (priority 1999, dated 2000)
